Here are results for 1 molecule from patent US20100297330A1, “YOGHURT CONTAINING HYDROXYTYROSOL AND OTHER BIOPHENOLS WITH A PREVENTIVE NUTRITIONAL ACTIVITY BENEFICIAL TO HUMAN BEINGS” (priority 2007, published 2010).

Data set [1] has as its system mammals. Nature of the data set: toxicity in mammals (unpublished proprietary studies). The data set is classed as in vivo. Conditions: 2 g/kg of body weight.
Data set [2] deals with human cell systems. To be noted: cited from earlier work.
Data set [3] concerns cell membranes. To be noted: cited from earlier work.

On to `OCCc1ccc(O)c(O)c1` [HT, Hydroxytyrosol], for which, in data set [1], the “toxicity or evident alterations in the internal organs” value was “does not cause toxicity or evident alterations in the internal organs”. For the same molecule, the “effect on cytotoxic effects of reactive oxygen species” value in data set [2] is on record as “effectively counteracts the cytotoxic effects”. Also, in data set [3], the “permeation of the cell membranes, mechanism” value was “passive mechanism”.
